Patent US20130345205A1, “SUBSTITUTED BICYCLIC ARALKYL PYRAZOLE LACTAM ANALOGS AS ALLOSTERIC MODULATORS OF MGLUR5 RECEPTORS” (Vanderbilt University, priority 2012, published 2013)

What was measured:
human mGluR5 = human mGluR5 (Homo sapiens, UniProt P41594); assay: Cell-based functional Ca2+ mobilization assay (FDSS), potentiation of glutamate EC20 response; details: H10H cell-line (HEK, recombinant human mGluR5); for Emax: glutamate EC20, maximum average response at a single concentration, percent of maximal glutamate response; for EC50: positive allosteric modulation in presence of glutamate EC20, concentration in mol/L
From the text: Human mGluR5a cDNA in pCMV6-XL6 mammalian expression plasmid was purchased from OriGene Technologies, Inc. (catalogue number SC326357) and subcloned into pcDNA3.1(−). Human embryonic kidney (HEK) 293A cells were then transfected with human mGluR5a pcDNA3.1(−) using LipofectAmine2000 (Invitrogen) and monoclones were selected and tested for functional response using a Ca^2+ mobilization assay. Monoclones were named for the species (“H” for human) plus the location on the plate (e.g. “10H”).
HEK cells transfected with the human mGluR5a receptor (H10H or H12H cell line) were plated at 15,000 cells/well in clear-bottomed poly-D-lysine-coated assay plates (BD Falcon) in glutamate-glutamine-free growth medium and incubated overnight at 37° C. and 5% CO2. Cell-lines used were either the H10H or H12H cell-lines expressing the human mGluR5 receptor. The following day, the growth medium was removed and the cells were washed with assay buffer containing 1× Hank's balanced salt solution (Invitrogen, Carlsbad, Calif.), 20 mM HEPES, 2.5 mM probenecid, pH 7.4 and left with 20 μL of this reagent. Following this step, the cells were loaded with calcium indicator dye, fluo-4 AM, to a final concentration of 2 μM and incubated for 40-45 min at 37° C. The dye solution was removed and replaced with assay buffer. Cell plates were held for 10-15 min at room temperature and were then loaded into the Functional Drug Screening System 6000 (FDSS 6000, Hamamatsu, Japan).
After establishment of a fluorescence baseline for about 3 seconds, the compounds of the present invention were added to the cells, and the response in cells was measured. 2.3 minutes later an EC20 concentration of the mGluR5 receptor agonist glutamate was added to the cells, and the response of the cells was measured for about 1.7 minutes. All test compounds were dissolved and diluted to a concentration of 10 mM in 100% DMSO and then serially diluted into assay buffer for a 2× stock solution in 0.6% DMSO; stock compounds were then added to the assay for a final DMSO concentration of 0.3% after the first addition to the assay well. Calcium fluorescence measures were recorded as fold over basal fluorescence; raw data was then normalized to the maximal response to glutamate. Potentiation of the agonist response of the mGluR5 receptor in the present invention was observed as an increase in response to submaximal concentrations of glutamate in the presence of compound compared to the response to glutamate in the absence of compound.
The concentration-response curves of compounds of the present invention, obtained in the presence of EC20 of mGluR5 receptor agonist glutamate to determine positive allosteric modulation, were generated using Microsoft Excel with IDBS XLFit add-ins. The raw data file containing all time points was used as the data source in the analysis template. This was saved by the FDSS as a tab-delimited text file. Data were normalized using a static ratio function (F/F0) for each measurement of the total 350 values per well divided by each well's initial value. Data was then reduced as to peak amplitudes (Max-Initial Min) using a time range that starts approximately 1 second after the glutamate EC20 addition and continues for approximately 40 seconds. This is sufficient time to capture the peak amplitude of the cellular Calcium response. Individual amplitudes were expressed as % EMax by multiplying each amplitude by 100 and then dividing the product by the mean of the amplitudes derived from the glutamate ECMax-treated wells. pEC50 values for test compounds were generated by fitting the normalized values versus the log of the test compound concentration (in mol/L) using a 4 parameter logistic equation where none of the parameters were fixed. Each of the three values collected at each concentration of test compound were weighted evenly. Individual values falling outside the 95% prediction limits of the curve fit were automatically excluded from the fit. […]

Sequence of human mGluR5 (P41594 21-1180 isoform P41594-2 limits assumed): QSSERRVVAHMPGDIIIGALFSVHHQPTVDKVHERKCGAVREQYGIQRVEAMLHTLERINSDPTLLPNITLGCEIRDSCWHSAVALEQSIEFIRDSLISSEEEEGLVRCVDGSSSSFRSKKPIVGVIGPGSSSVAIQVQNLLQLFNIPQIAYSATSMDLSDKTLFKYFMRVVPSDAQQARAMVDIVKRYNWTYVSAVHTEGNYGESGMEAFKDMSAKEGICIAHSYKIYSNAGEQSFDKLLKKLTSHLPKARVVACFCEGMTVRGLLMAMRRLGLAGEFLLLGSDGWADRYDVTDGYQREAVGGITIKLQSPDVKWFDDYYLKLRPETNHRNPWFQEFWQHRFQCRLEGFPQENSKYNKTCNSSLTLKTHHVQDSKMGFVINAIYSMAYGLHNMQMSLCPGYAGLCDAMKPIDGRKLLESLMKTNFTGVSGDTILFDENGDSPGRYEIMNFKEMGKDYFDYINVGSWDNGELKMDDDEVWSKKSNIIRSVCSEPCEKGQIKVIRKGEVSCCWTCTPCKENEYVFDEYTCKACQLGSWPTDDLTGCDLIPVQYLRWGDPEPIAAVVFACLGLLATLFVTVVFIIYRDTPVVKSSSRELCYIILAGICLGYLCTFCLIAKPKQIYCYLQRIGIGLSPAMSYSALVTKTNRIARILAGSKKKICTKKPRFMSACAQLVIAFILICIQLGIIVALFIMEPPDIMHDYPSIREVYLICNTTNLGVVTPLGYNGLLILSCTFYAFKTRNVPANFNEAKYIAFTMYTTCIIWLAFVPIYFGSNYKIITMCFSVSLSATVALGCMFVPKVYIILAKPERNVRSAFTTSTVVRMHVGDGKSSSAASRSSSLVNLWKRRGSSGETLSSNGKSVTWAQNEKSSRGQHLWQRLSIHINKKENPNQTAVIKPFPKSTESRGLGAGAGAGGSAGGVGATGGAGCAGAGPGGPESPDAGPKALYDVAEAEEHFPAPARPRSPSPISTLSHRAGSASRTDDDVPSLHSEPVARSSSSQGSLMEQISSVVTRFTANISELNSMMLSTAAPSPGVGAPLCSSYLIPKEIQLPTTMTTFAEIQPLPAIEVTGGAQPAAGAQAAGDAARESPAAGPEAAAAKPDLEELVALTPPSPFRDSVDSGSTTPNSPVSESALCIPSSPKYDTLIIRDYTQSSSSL

CC1CN([C@H](C)c2ccccc2)C(=O)c2cc(COc3ccccc3)nn21 (single isomer, unassigned) [Example B4, (7*S)-7-methyl-2-(phenoxymethyl)-5-[(1R)-1-phenylethyl]-6,7-dihydropyrazolo[1,5-a]pyrazin-4(5H)-one]
Emax (human mGluR5): 68.5% | EC50 (human mGluR5): 55 nM | melting point: 132 °C

CC1CN(Cc2ccccc2)C(=O)c2cc(COc3cccc(F)c3)nn21 (single isomer, unassigned) [Example B10, (7*S)-5-benzyl-2-[(3-fluorophenoxy)methyl]-7-methyl-6,7-dihydropyrazolo[1,5-a]pyrazin-4(5H)-one]
Emax (human mGluR5): 70.5% | EC50 (human mGluR5): 69.2 nM

CC1CN(Cc2ccccc2)C(=O)c2cc(COc3ccccc3)nn21 (single isomer, unassigned) [Example B14]
Emax (human mGluR5): 69.5% | EC50 (human mGluR5): 60.3 nM | melting point: 97.7 °C

CC1CN(Cc2ccccc2)C(=O)c2cc(COc3cccc(C#N)c3)nn21 (single isomer, unassigned) [Example B53]
Emax (human mGluR5): 65% | EC50 (human mGluR5): 525 nM

CC1CN(Cc2ccccc2)C(=O)c2cc(COc3ccc(F)cc3)nn21 (single isomer, unassigned) [Example B54]
Emax (human mGluR5): 69.5% | EC50 (human mGluR5): 93.3 nM

Cc1cccc(OCc2cc3n(n2)C(C)CN(Cc2ccccc2)C3=O)c1 (single isomer, unassigned) [Example B55]
Emax (human mGluR5): 69.5%

COc1cccc(CN2CCn3nc(COc4ccccc4)cc3C2=O)n1 [Example B1, 5-[(6-methoxypyridin-2-yl)methyl]-2-(phenoxymethyl)-6,7-dihydropyrazolo[1,5-a]pyrazin-4(5H)-one]
Emax (human mGluR5): 68% | EC50 (human mGluR5): 91.2 nM | melting point: 97.7 °C

O=C1c2cc(COc3ccccc3)nn2CCN1Cc1ncccc1Cl [Example B6, 5-[(3-chloropyridin-2-yl)methyl]-2-(phenoxymethyl)-6,7-dihydropyrazolo[1,5-a]pyrazin-4(5H)-one]
Emax (human mGluR5): 76% | EC50 (human mGluR5): 120 nM

C[C@H](c1ccccc1)N1CCn2nc(COc3ccccc3)cc2C1=O [Example B8, 2-(phenoxymethyl)-5-[(1R)-1-phenylethyl]-6,7-dihydropyrazolo[1,5-a]pyrazin-4(5H)-one]
Emax (human mGluR5): 59.5% | EC50 (human mGluR5): 30.9 nM

COc1ccc(CN2CCn3nc(COc4ccccc4)cc3C2=O)cc1 [Example B34]
Emax (human mGluR5): 69% | EC50 (human mGluR5): 209 nM

COc1ccccc1CN1CCn2nc(COc3ccccc3)cc2C1=O [Example B38]
Emax (human mGluR5): 63.5% | EC50 (human mGluR5): 40.7 nM

N#Cc1cccc(OCc2cc3n(n2)CCN(Cc2ccccc2)C3=O)c1 [Example B43]
Emax (human mGluR5): 53% | EC50 (human mGluR5): 380 nM

C[C@@H]1Cn2nc(COc3cccc(F)c3)cc2C(=O)N1Cc1ccccc1 [Example B49]
Emax (human mGluR5): 73% | EC50 (human mGluR5): 93.3 nM

C[C@@H]1Cn2nc(COc3ccccn3)cc2C(=O)N1Cc1ccccc1 [Example B56]
Emax (human mGluR5): 70% | EC50 (human mGluR5): 1000 nM

Cc1cccc(OCc2cc3n(n2)C[C@@H](C)N(Cc2ccccc2)C3=O)c1 [Example B57]
Emax (human mGluR5): 64.5% | EC50 (human mGluR5): 186 nM

C[C@@H]1Cn2nc(COc3cccc(C#N)c3)cc2C(=O)N1Cc1ccccc1 [Example B58]
Emax (human mGluR5): 59% | EC50 (human mGluR5): 468 nM

COc1cccc(CN2CCn3nc(COc4ccccc4)cc3C2=O)c1F [Example B59]
Emax (human mGluR5): 71% | EC50 (human mGluR5): 107 nM

COc1cccc(CN2CCn3nc(COc4ccccc4)cc3C2=O)c1Cl [Example B60]
Emax (human mGluR5): 75.5% | EC50 (human mGluR5): 79.4 nM

COc1ccc(F)cc1CN1CCn2nc(COc3ccccc3)cc2C1=O [Example B61]
Emax (human mGluR5): 66% | EC50 (human mGluR5): 85.1 nM

O=C1c2cc(COc3ccccc3)nn2CCN1Cc1ncc(F)cn1 [Example B70]
Emax (human mGluR5): 66% | EC50 (human mGluR5): 398 nM

O=C1c2cc(COc3ccccc3)nn2CCN1Cc1ccncc1 [Example B102]
Emax (human mGluR5): 68% | EC50 (human mGluR5): 1780 nM
